Laboratory results as given in patent US10383332B2, “Antimicrobial compositions and related methods of use” (Jeneil Biosurfactant Company, LLC, priority 2013, dated 2019).

What was measured:
Test in all cases: Vapor test, microcup on PDA Petri plate
Settings in all cases: vapors
Aspergillus niger = tested on: Aspergillus niger
Cercospora beticola = tested on: Cercospora beticola
Pythium ultimum = tested on: Pythium ultimum
Phytophthora palmivora = tested on: Phytophthora palmivora
Rhizoctonia solani = tested on: Rhizoctonia solani
Aspergillus fumigatus = tested on: Aspergillus fumigatus
Geotrichum candidum = tested on: Geotrichum candidum
Botrytis alli = tested on: Botrytis alli

SMILES: CCC(=O)O [Propanoic Acid, propanoic acid]
- % inhibition, alone at 20 μl After 24 hr (C) (Aspergillus niger): 0%
- Alive or dead, alone at 20 μl After 24 hr (C) (Aspergillus niger): Alive
- % inhibition, alone at 20 μl After 24 hr (C) (Cercospora beticola): 75%
- Alive or dead, alone at 20 μl After 24 hr (C) (Cercospora beticola): Alive
- % inhibition, alone at 20 μl After 24 hr (C) (Pythium ultimum): 80%
- Alive or dead, alone at 20 μl After 24 hr (C) (Pythium ultimum): Alive
- % inhibition, alone at 20 μl After 24 hr (C) (Phytophthora palmivora): 100%
- % inhibition, alone at 20 μl After 24 hr (C) (Rhizoctonia solani): 80%
- Alive or dead, alone at 20 μl After 24 hr (C) (Rhizoctonia solani): Alive
- % inhibition, alone at 20 μl After 24 hr (C) (Aspergillus fumigatus): 0%
- Alive or dead, alone at 20 μl After 24 hr (C) (Aspergillus fumigatus): Alive
- % inhibition, alone at 20 μl After 24 hr (C) (Geotrichum candidum): 0%
- Alive or dead, alone at 20 μl After 24 hr (C) (Geotrichum candidum): Alive
- % inhibition, alone at 20 μl After 24 hr (C) (Botrytis alli): 0%
- Alive or dead, alone at 20 μl After 24 hr (C) (Botrytis alli): Alive
